Data taken from ChEMBL document CHEMBL5579889, “Structure-Based Design and Development of Phosphine Oxides as a Novel Chemotype for Antibiotics that Dysregulate Bacterial ClpP Proteases” (J Med Chem, 2024).
≈ marks a conversion by molar mass, not a printed value. Calls of active or inactive are those of the source. The calls are words filed in the database; no cut-off is given here.

Experiments:
[1] = system: Neisseria gonorrhoeae; assay: Antibacterial activity against Neisseria gonorrhoeae WHO P measured after 16 to 18 hrs by OD based assay; format: functional; settings: time 16-18 hrs
[2] = system: Neisseria gonorrhoeae; assay: Antibacterial activity against Neisseria gonorrhoeae MS11 measured after 16 to 18 hrs by OD based assay; format: functional; settings: time 16-18 hrs
[3] = system: Neisseria meningitidis; assay: Antibacterial activity against wild-type Neisseria meningitidis H44/76 measured after 16 to 18 hrs by OD based assay; format: functional; settings: time 16-18 hrs
[4] = system: Neisseria meningitidis; assay: Antibacterial activity against Neisseria meningitidis NGPB24 measured after 16 to 18 hrs by OD based assay; format: functional; settings: time 16-18 hrs
[5] = system: Neisseria meningitidis; assay: Antibacterial activity against Neisseria meningitidis EG329 measured after 16 to 18 hrs by OD based assay; format: functional; settings: time 16-18 hrs
[6] = system: Neisseria meningitidis; assay: Antibacterial activity against Neisseria meningitidis SWZ107 measured after 16 to 18 hrs by OD based assay; format: functional; settings: time 16-18 hrs
[7] = biological target: T1, ATP-dependent Clp protease proteolytic subunit (Neisseria gonorrhoeae, UniProt Q5F914); assay: Activation of N-terminal His-tagged recombinant Neisseria gonorrhoeae ClpP expressed in Escherichia coli SG1146(DE3) assessed as degradation of casein-FITC preincubated for 10 mins followed by casein addition measured for over 100 mins by fluorescence based assay
T1 sequence (Q5F914 whole entry): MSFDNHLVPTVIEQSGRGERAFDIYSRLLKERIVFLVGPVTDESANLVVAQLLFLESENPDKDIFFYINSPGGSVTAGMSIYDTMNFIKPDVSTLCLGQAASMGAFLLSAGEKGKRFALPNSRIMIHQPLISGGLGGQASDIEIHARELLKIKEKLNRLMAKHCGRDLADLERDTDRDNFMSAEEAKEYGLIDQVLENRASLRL

[8] = system: Neisseria gonorrhoeae; assay: Antibacterial activity against Neisseria gonorrhoeae WHO V measured after 16 to 18 hrs by OD based assay; format: functional; settings: time 16-18 hrs
[9] = biological target: ATP-dependent Clp protease proteolytic subunit, mitochondrial (Homo sapiens) (UniProt Q16740); assay: Activation of N-terminal His-tagged recombinant human ClpP expressed in Escherichia coli SG1146(DE3) assessed as degradation of casein-FITC at 100 uM preincubated for 10 mins followed by casein addition measured for over 100 mins by fluorescence based assay; settings: time > 110.0 min
Chain of ATP-dependent Clp protease proteolytic subunit, mitochondrial (Homo sapiens) (Q16740 whole entry): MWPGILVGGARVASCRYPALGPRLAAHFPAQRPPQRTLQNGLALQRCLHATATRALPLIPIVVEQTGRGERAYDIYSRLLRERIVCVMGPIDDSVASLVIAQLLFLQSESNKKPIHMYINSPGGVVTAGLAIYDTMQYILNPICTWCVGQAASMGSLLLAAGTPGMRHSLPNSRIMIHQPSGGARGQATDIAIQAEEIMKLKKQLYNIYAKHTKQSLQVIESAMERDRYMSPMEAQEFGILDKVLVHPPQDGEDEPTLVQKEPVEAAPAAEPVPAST

[10] = system: Neisseria meningitidis; assay: Antibacterial activity against Neisseria meningitidis 88/03415 measured after 16 to 18 hrs by OD based assay; format: functional; settings: time 16-18 hrs
[11] = system: Neisseria gonorrhoeae; assay: Antibacterial activity against Neisseria gonorrhoeae WHO L measured after 16 to 18 hrs by OD based assay; format: functional; settings: time 16-18 hrs
[12] = system: Neisseria gonorrhoeae; assay: Antibacterial activity against Neisseria gonorrhoeae FA19 measured after 16 to 18 hrs by OD based assay; format: functional; settings: time 16-18 hrs
[13] = biological target: T1, ATP-dependent Clp protease proteolytic subunit; assay: Binding affinity to His-tagged recombinant Neisseria gonorrhoeae ClpP extracted from Escherichia coli SG1146(DE3) using casein as substrate assessed as apparent dissociation constant incubated upto 120 mins by SDS-PAGE analysis; settings: read-out: Kd(app)
[14] = system: Neisseria meningitidis; assay: Antibacterial activity against Neisseria meningitidis H44/76 harboring deltaclpP measured after 16 to 18 hrs by OD based assay; format: functional; settings: time 16-18 hrs
[15] = system: Neisseria gonorrhoeae; assay: Antibacterial activity against Neisseria gonorrhoeae WHO M measured after 16 to 18 hrs by OD based assay; format: functional; settings: time 16-18 hrs
[16] = system: Neisseria gonorrhoeae; assay: Antibacterial activity against Neisseria gonorrhoeae WHO G measured after 16 to 18 hrs by OD based assay; format: functional; settings: time 16-18 hrs
[17] = system: Neisseria gonorrhoeae; assay: Antibacterial activity against Neisseria gonorrhoeae WHO Y measured after 16 to 18 hrs by OD based assay; format: functional; settings: time 16-18 hrs
[18] = system: Streptococcus pneumoniae; assay: Activation of recombinant Streptococcus pneumoniae ClpP extracted from Escherichia coli SG1146(DE3) assessed as degradation of casein-FITC at 100 uM preincubated for 10 mins followed by casein addition measured for over 100 mins by fluorescence based assay; settings: time > 110.0 min
[19] = biological target: T2, ATP-dependent Clp protease proteolytic subunit (Staphylococcus aureus (strain NCTC 8325)) (UniProt Q2G036); assay: Activation of N-terminal His-tagged recombinant Staphylococcus aureus ClpP expressed in Escherichia coli SG1146(DE3) assessed as degradation of casein-FITC at 100 uM preincubated for 10 mins followed by casein addition measured for over 100 mins by fluorescence based assay; settings: time > 110.0 min
T2 sequence (whole entry): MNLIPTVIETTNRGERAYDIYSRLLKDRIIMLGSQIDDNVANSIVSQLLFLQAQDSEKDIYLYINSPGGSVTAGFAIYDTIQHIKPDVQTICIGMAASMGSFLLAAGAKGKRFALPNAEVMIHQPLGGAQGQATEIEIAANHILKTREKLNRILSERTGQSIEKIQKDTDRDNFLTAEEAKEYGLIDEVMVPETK

[20] = Cytotoxicity against wild-type HEK293-T-REx cells assessed as cell viability upto 100 uM incubated for 3 days by AlamarBlue assay; format: toxicity, cell-based; settings: human, 72 h, time 3 day
[21] = system: Neisseria meningitidis; assay: Antibacterial activity against Neisseria meningitidis AK50 measured after 16 to 18 hrs by OD based assay; format: functional; settings: time 16-18 hrs
[22] = system: Neisseria meningitidis; assay: Antibacterial activity against Neisseria meningitidis NGF26 measured after 16 to 18 hrs by OD based assay; format: functional; settings: time 16-18 hrs
[23] = system: Neisseria meningitidis; assay: Antibacterial activity against Neisseria meningitidis BZ133 measured after 16 to 18 hrs by OD based assay; format: functional; settings: time 16-18 hrs
[24] = biological target: T3, ATP-dependent Clp protease proteolytic subunit (Escherichia coli (strain K12), UniProt P0A6G7); assay: Binding affinity to His-tagged recombinant Escherichia coli ClpP extracted from Escherichia coli SG1146(DE3) using casein as substrate assessed as apparent dissociation constant incubated upto 120 mins by SDS-PAGE analysis; settings: read-out: Kd(app)
T3 sequence (P0A6G7 whole entry): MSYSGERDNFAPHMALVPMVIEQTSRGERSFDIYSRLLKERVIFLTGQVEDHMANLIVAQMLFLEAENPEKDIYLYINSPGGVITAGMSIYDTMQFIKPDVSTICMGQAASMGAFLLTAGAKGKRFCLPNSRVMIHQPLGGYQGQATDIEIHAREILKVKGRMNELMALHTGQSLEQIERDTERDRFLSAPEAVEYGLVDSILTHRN

[25] = system: Neisseria gonorrhoeae; assay: Antibacterial activity against Neisseria gonorrhoeae WHO N measured after 16 to 18 hrs by OD based assay; format: functional; settings: time 16-18 hrs
[26] = system: Neisseria meningitidis; assay: Antibacterial activity against Neisseria meningitidis NG144/82 measured after 16 to 18 hrs by OD based assay; format: functional; settings: time 16-18 hrs
[27] = system: Neisseria meningitidis; assay: Antibacterial activity against Neisseria meningitidis BZ169 measured after 16 to 18 hrs by OD based assay; format: functional; settings: time 16-18 hrs
[28] = system: Neisseria gonorrhoeae; assay: Antibacterial activity against Neisseria gonorrhoeae WHO X measured after 16 to 18 hrs by OD based assay; format: functional; settings: time 16-18 hrs
[29] = system: Neisseria gonorrhoeae; assay: Antibacterial activity against Neisseria gonorrhoeae WHO K measured after 16 to 18 hrs by OD based assay; format: functional; settings: time 16-18 hrs
[30] = system: Neisseria gonorrhoeae; assay: Antibacterial activity against Neisseria gonorrhoeae WHO Z measured after 16 to 18 hrs by OD based assay; format: functional; settings: time 16-18 hrs
[31] = biological target: T3, ATP-dependent Clp protease proteolytic subunit; assay: Activation of N-terminal His-tagged recombinant Escherichia coli ClpP expressed in Escherichia coli SG1146(DE3) assessed as degradation of casein-FITC preincubated for 10 mins followed by casein addition measured for over 100 mins by fluorescence based assay
[32] = biological target: ATP-dependent Clp protease proteolytic subunit (Neisseria gonorrhoeae) (UniProt Q5F914); assay: Activation of N-terminal His-tagged recombinant Neisseria gonorrhoeae ClpP expressed in Escherichia coli SG1146(DE3) assessed as degradation of casein-FITC at 100 uM preincubated for 10 mins followed by casein addition measured for over 100 mins by fluorescence based assay; settings: time > 110.0 min
Chain of ATP-dependent Clp protease proteolytic subunit (Neisseria gonorrhoeae) (Q5F914 whole entry): as the sequence (Q5F914 whole entry) above

[33] = biological target: ATP-dependent Clp protease proteolytic subunit (Escherichia coli (strain K12)) (UniProt P0A6G7); assay: Activation of N-terminal His-tagged recombinant Escherichia coli ClpP expressed in Escherichia coli SG1146(DE3) assessed as degradation of casein-FITC at 100 uM preincubated for 10 mins followed by casein addition measured for over 100 mins by fluorescence based assay; settings: filed as activator, time > 110.0 min
Chain of ATP-dependent Clp protease proteolytic subunit (Escherichia coli (strain K12)) (P0A6G7 whole entry): as the sequence (P0A6G7 whole entry) above

| SMILES | MIC [1] [µM] | MIC [2] [µM] | MIC [3] [µM] | MIC [4] [µM] | MIC [5] [µM] | MIC [6] [µM] | EC50 [7] [µM] | MIC [8] [µM] | Activity [9] | MIC [10] [µM] | MIC [11] [µM] | MIC [12] [µM] | MIC [14] [µM] | MIC [15] [µM] | MIC [16] [µM] | MIC [17] [µM] | Activity [18] | Activity [19] | MIC [21] [µM] | EC50 [31] [µM] | also measured |
| --- | --- | --- | --- | --- | --- | --- | --- | --- | --- | --- | --- | --- | --- | --- | --- | --- | --- | --- | --- | --- | --- |
| CC(C)(C(=O)NCCSc1ccccc1C(F)(F)F)P(=O)(c1ccc(C(F)(F)F)cn1)c1ccc(C(F)(F)F)cn1 | 1.6 (≈ 1.01 µg/mL) | 1.6 (≈ 1.01 µg/mL) | 0.3 (≈ 0.189 µg/mL) | 25 (≈ 15.7 µg/mL) | 13.8 (≈ 8.69 µg/mL) | 123 (≈ 77.4 µg/mL) | 0.16 | 3.1 (≈ 1.95 µg/mL) | inactive | 18.8 (≈ 11.8 µg/mL) | 1.6 (≈ 1.01 µg/mL) | 1.6 (≈ 1.01 µg/mL) | 3.1 (≈ 1.95 µg/mL) | 1.6 (≈ 1.01 µg/mL) | 1.6 (≈ 1.01 µg/mL) | 3.1 (≈ 1.95 µg/mL) | inactive | inactive | 50 (≈ 31.5 µg/mL) | 0.2 | Kd [13]: 0.69 µM; Activity [20]: Non-Toxic; MIC [22]: 18.8 µM (≈ 11.8 µg/mL); MIC [23]: 25 µM (≈ 15.7 µg/mL); Kd [24]: 0.27 µM; MIC [25]: 1.6 µM (≈ 1.01 µg/mL); MIC [26]: 18.8 µM (≈ 11.8 µg/mL); MIC [27]: 18.8 µM (≈ 11.8 µg/mL); MIC [28]: 1.6 µM (≈ 1.01 µg/mL); MIC [29]: 1.6 µM (≈ 1.01 µg/mL); MIC [30]: 2.4 µM (≈ 1.51 µg/mL) |
| CC(C)(C(=O)NCCSc1ccccc1C(F)(F)F)P(=O)(c1ccccn1)c1ccccn1 | – | – | – | – | – | – | 5.1 | – | inactive | – | – | – | – | – | – | – | inactive | inactive | – | 2.3 | – |
| CC(C(=O)NCCSc1ccccc1Cl)P(=O)(c1ccccc1)c1ccccc1 (centres undefined) | 3.1 (≈ 1.38 µg/mL) | 3.1 (≈ 1.38 µg/mL) | 1 (≈ 0.444 µg/mL) | 3.1 (≈ 1.38 µg/mL) | 1.7 (≈ 0.755 µg/mL) | 0.3 (≈ 0.133 µg/mL) | – | 3.1 (≈ 1.38 µg/mL) | – | 1.6 (≈ 0.71 µg/mL) | 3.1 (≈ 1.38 µg/mL) | 3.1 (≈ 1.38 µg/mL) | > 25 | 1.6 (≈ 0.71 µg/mL) | 1.6 (≈ 0.71 µg/mL) | 12.5 (≈ 5.55 µg/mL) | – | – | 4.7 (≈ 2.09 µg/mL) | – | MIC [22]: 1.6 µM (≈ 0.71 µg/mL); MIC [23]: 2.4 µM (≈ 1.07 µg/mL); MIC [25]: 1.6 µM (≈ 0.71 µg/mL); MIC [26]: 0.3 µM (≈ 0.133 µg/mL); MIC [27]: 1 µM (≈ 0.444 µg/mL); MIC [28]: 4.7 µM (≈ 2.09 µg/mL); MIC [29]: 1.6 µM (≈ 0.71 µg/mL); MIC [30]: 1.6 µM (≈ 0.71 µg/mL) |
| CC(C(=O)NCCSc1ccccc1C(F)(F)F)P(=O)(c1ccc(C(F)(F)F)cc1)c1ccc(C(F)(F)F)cc1 (centres undefined) | – | – | – | – | – | – | – | – | – | – | – | – | – | – | – | – | – | – | – | 4.45 | Activity [32]: inactive; Activity [33]: Active |
| CC(C)(C(=O)NCCSc1ccccc1Cl)P(=O)(c1ccc(C(F)(F)F)cc1)c1ccc(C(F)(F)F)cc1 | – | – | – | – | – | – | 1.58 | – | – | – | – | – | – | – | – | – | – | – | – | 4.77 | – |
| CC(C)(C(=O)NCCSc1ccccc1Br)P(=O)(c1ccc(C(F)(F)F)cc1)c1ccc(C(F)(F)F)cc1 | – | – | – | – | – | – | 3.39 | – | inactive | – | – | – | – | – | – | – | inactive | inactive | – | 7.23 | – |
